As usually defined, the IC50 is the point on the concentration scale where inhibition reaches its midpoint. By inhibition is commonly meant the change of the read-out against control, counted positive when it falls. Lower therefore signals a weak effect.

The values below come from US20070275936A1, “Formulations and Treatment Methods” (priority 1998, published 2007).

Each structure is given as a SMILES string.

For data set [1], the system named is Chloroquine sensitive T996/86 P. falciparum. Description: In vitro antimalarial testing (schizont inhibition / 3H-hypoxanthine incorporation). The format is cell-based. Conditions: Plasmodium falciparum, T996. On the procedure:
For in vitro antimalarial testing, micro-titer plates were used. The concentration of drugs were prepared as pMol/well according to WHO standard procedures (WHO, 1990). The test compound was dissolved in 15% DMSO in sterile RPMI-1640. Both chloroquine sensitive (e.g., WS/97) and resistant (e.g., MN/97) isolates of Plasmodium species are used.
A schizont inhibition assay was performed as follows. The micro-titer plates were predosed with various concentrations of the test compound. 50 μL of parasitised erythrocyte suspension in RPMI-1640 (0.2 mL erythrocyte+0.3 mL serum+4-5 ml RPMI-1640) were dispensed in microtiter wells that contained various concentrations of drug. Triplicate readings were made for each concentration.
A ^3H-hypoxanthine incorporation assay was performed as follows. The testing was carried out according to the procedure of Desjardins et al. 1979. After 30 hr culture at 37 degrees C., the same microtiter plates from schizont inhibition assays with another triplicate wells were pulsed with ^3H-hypoxanthine for overnight. The cell suspensions were washed twice on millipore glass fiber filter with Millipore filter apparatus. The filter discs were counted for DPM by a Beckman LS6000 β-scintillation counter. The activity of the drug was measured by plotting DPM against concentration of drug.

In a further data set the test system is Plasmodium falciparum. Description: Inhibition of parasite growth in culture. The data set is classed as cell-based. As to the method: The effect of Epi (16α-bromo-epiandrosterone) on parasite (Plasmodium falciparum) growth was shown. EPI was active at a concentration of 1 μM.
Parasitemias were determined by standard methods (microscopic inspection of at least 500 cells, stained with Diff-Quick™ (Baxter). Parasites were cultured under standard conditions in RPMI-1640 supplemented with Hepes/Glucose (10 mM), glutamine (0.3 g/liter) and 10% human plasma. The hematocrit was 1%.

Data set [2] is described as follows: Oral administration of 14C BrEA to rats, preliminary pharmacokinetics. The data set is classed as in vivo. To be noted: 14C BrEA solubilized in different excipients. On the procedure: Nonclinical studies were conducted using an oral and a subcutaneous formulation of BrEA. Rats were orally administered ^14C BrEA solubilized in different excipients to determine the levels of drug in blood and various tissues.

A further data set relates to NK cell. Description: NK cell counts in HIV/HCV infected patient dosed I.V. with BrEA. To be noted: predosing 28. The format is in vivo, human. As to the method:
A patient infected with HIV and HCV was dosed I.V. with BrEA for 3 consecutive days using a formulation that contained 20 mg/mL BrEA in 45% w/v hydroxypropyl-β-cyclodextrin and saline. Four mL of the formulation (80 mg BrEA) was administered to the patient every 4 hours during the 3 day treatment period. The patient's predosing HCV level was 6.5 Log10 as measured by PCR and the HCV level was 6.2 Log10 on the first day of dosing, 5.5 Log10 on the 3rd day of dosing and 4.9 Log10 three days after the last dose was administered. HIV RNA levels as measured by PCR was 5.2 Log10 (predosing), 5.8 Log10 (first day), 5.9 Log10 (third day) and 5.4 Log10 (day 6). The NK cell counts (cells/mm^3) were 28, 41 and 38 at predosing, day 0 and day 3.

`C[C@]12CC[C@H](O)C[C@@H]1CC[C@@H]1[C@@H]2CC[C@]2(C)C(=O)[C@H](Br)C[C@@H]12` [BrEA, 16α-bromo-3β-hydroxy-5α-androstane-17-one]: the IC50 in data set [1] was 7.5 µM. This compound also yielded an inhibition at 0.938 µM in data set [1] of 31.8%. Further, 1.875 µM produced 40.9% inhibition in data set [1]. In data set [1], this compound gave an inhibition at 3.25 µM of 43.7%. This compound also yielded an inhibition at 7.5 µM in data set [1] of 50%. In data set [1], this compound had an inhibition at 15 µM of 60.1%. Further, 30 µM produced 98% inhibition in data set [1]. The Parasitemia after treatment in the data set with Plasmodium falciparum (50 nM, 24 hrs, Time 0 2%, control + DMSO 8.80%) was 9.90%; with Plasmodium falciparum (50 nM, 48 hrs, Time 0 2%, control + DMSO 11%) it was 9.20%; in the data set with Plasmodium falciparum (50 nM, 72 hrs, Time 0 2%, control + DMSO 8%) it was 8.30%; in the data set on Plasmodium falciparum (1 μM, 24 hrs, Time 0 2%, control + DMSO 8.80%) it was 5.80%; with Plasmodium falciparum (1 μM, 24 hrs, Time 0 5%, control + DMSO 5.40%) it was 5.70%; in the data set with Plasmodium falciparum (1 μM, 48 hrs, Time 0 2%, control + DMSO 11%), 6.10%. The Parasitemia after treatment with Plasmodium falciparum (1 μM, 48 hrs, Time 0 5%, control + DMSO 3.10%) is given as 5.50%; in the data set on Plasmodium falciparum (1 μM, 72 hrs, Time 0 2%, control + DMSO 8%), 2.10%; in the data set on Plasmodium falciparum (1 μM, 72 hrs, Time 0 5%, control + DMSO 5.20%), 1.60%; in the data set on Plasmodium falciparum (2.5 μM, 24 hrs, Time 0 2%, control + DMSO 8.80%), 7.30%; in the data set with Plasmodium falciparum (2.5 μM, 48 hrs, Time 0 2%, control + DMSO 11%), 5.80%; with Plasmodium falciparum (2.5 μM, 72 hrs, Time 0 2%, control + DMSO 8%), 3.20%. In addition, the Parasitemia after treatment with Plasmodium falciparum (5 μM, 24 hrs, Time 0 2%, control + DMSO 8.80%) was 5.40%; in the data set with Plasmodium falciparum (5 μM, 48 hrs, Time 0 2%, control + DMSO 11%) it was 6%; in the data set on Plasmodium falciparum (5 μM, 72 hrs, Time 0 2%, control + DMSO 8%), 1.80%; in the data set on Plasmodium falciparum (10 μM, 24 hrs, Time 0 2%, control + DMSO 8.80%), 4.20%; in the data set on Plasmodium falciparum (10 μM, 24 hrs, Time 0 5%, control + DMSO 5.40%), 5.60%; in the data set with Plasmodium falciparum (10 μM, 48 hrs, Time 0 2%, control + DMSO 11%) it was 3%. For the same compound, the Parasitemia after treatment in the data set with Plasmodium falciparum (10 μM, 48 hrs, Time 0 5%, control + DMSO 3.10%) is 0.90%; with Plasmodium falciparum (10 μM, 72 hrs, Time 0 2%, control + DMSO 8%) it was 0%; in the data set with Plasmodium falciparum (10 μM, 72 hrs, Time 0 5%, control + DMSO 5.20%), 0%; with Plasmodium falciparum (50 μM, 24 hrs, Time 0 2%, control + DMSO 8.80%) it was 0%; in the data set with Plasmodium falciparum (50 μM, 48 hrs, Time 0 2%, control + DMSO 11%) it was 0%; with Plasmodium falciparum (50 μM, 72 hrs, Time 0 2%, control + DMSO 8%), 0%. Besides, the Parasitemia after treatment is reported as 0% with Plasmodium falciparum (100 μM, 24 hrs, Time 0 5%, control + DMSO 5.40%); 0% in the data set on Plasmodium falciparum (100 μM, 48 hrs, Time 0 5%, control + DMSO 3.10%); 0% with Plasmodium falciparum (100 μM, 72 hrs, Time 0 5%, control + DMSO 5.20%); 0% with Plasmodium falciparum (500 μM, 24 hrs, Time 0 5%, control + DMSO 5.40%); 0% with Plasmodium falciparum (500 μM, 48 hrs, Time 0 5%, control + DMSO 3.10%); 0% in the data set with Plasmodium falciparum (500 μM, 72 hrs, Time 0 5%, control + DMSO 5.20%). Moreover, the “concentration at which active on parasite growth” value in the data set on Plasmodium falciparum (P. falciparum culture) is 1 µM. Further, the “excreted in the feces” value in data set [2] was “at least 80%”. Besides, the NK cell counts with NK cell (day 0) was determined as 41 cells/mm^3; in the data set with NK cell (day 3), 38 cells/mm^3.

Take `C[C@]12CC[C@H](O)CC1=CC[C@@H]1[C@@H]2CC[C@]2(C)C(=O)CC[C@@H]12` [DHEA, dehydroepiandrosterone, reference compound]: in data set [1], the IC50 was 19 µM, testing at 0.938 µM gave an inhibition of 37.2%, 1.875 µM produced 23.2% inhibition and the inhibition at 3.25 µM came to 37.2%. In data set [1], this compound had an inhibition at 7.5 µM of 38.3%, an inhibition at 15 µM of 44% and an inhibition at 30 µM of 65.6%.
